# Strand notation (5' to 3'): a small letter for the sugar, then the base; units joined by * are phosphorothioate-linked, units joined directly phosphodiester-linked; [ ] holds rarer units or linkages, { } end groups; capitals alone tell only the bases. e = 2'-O-(2-methoxyethyl) (MOE); k = constrained ethyl (cEt); [5mC] = 5-methylcytosine; d = 2'-deoxy (DNA)
# Test system: human PKK mRNA
# Test: Antisense inhibition of human PKK mRNA in HepaRG cells, 1,000 nM, MOE/deoxy/cEt oligonucleotides (Example 3)
# Assay type: cell-based
# Settings: HepaRG cells, electroporation with 1,000 nM antisense oligonucleotide, approx. 24 hours, PKK mRNA by RT-PCR (RTS3454), relative to untreated control cells; Table 25 experiment
# In short: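 HepaRG cells at 20,000 per well electroporated with 1,000 nM 16-mer MOE/cEt/deoxy gapmers (phosphorothioate, 5-methylcytosine). After about 24 h, PKK mRNA measured by qRT-PCR with primer probe set RTS3454, normalized to RIBOGREEN total RNA. Reported as percent inhibition versus untreated cells.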
row,Substance,% inhibition [%]
1,548165 (e[5mC]*eG*kA*d[5mC]*d[5mC]*dT*d[5mC]*dG*d[5mC]*dA*dT*dT*dG*kT*k[5mC]*eA; antisense) [compound 548165],53
2,548166 (eG*e[5mC]*kG*dA*d[5mC]*d[5mC]*dT*d[5mC]*dG*d[5mC]*dA*dT*dT*kG*kT*e[5mC]; antisense) [compound 548166],0
3,548167 (eT*eG*k[5mC]*dG*dA*d[5mC]*d[5mC]*dT*d[5mC]*dG*d[5mC]*dA*dT*kT*kG*eT; antisense) [compound 548167],36
4,548168 (eT*eT*kG*d[5mC]*dG*dA*d[5mC]*d[5mC]*dT*d[5mC]*dG*d[5mC]*dA*kT*kT*eG; antisense) [compound 548168],61
5,548169 (eG*eT*kT*dG*d[5mC]*dG*dA*d[5mC]*d[5mC]*dT*d[5mC]*dG*d[5mC]*kA*kT*eT; antisense) [compound 548169],7
6,548171 (e[5mC]*eA*kG*dT*dT*dG*d[5mC]*dG*dA*d[5mC]*d[5mC]*dT*d[5mC]*kG*k[5mC]*eA; antisense) [compound 548171],47
7,548172 (eT*e[5mC]*kA*dG*dT*dT*dG*d[5mC]*dG*dA*d[5mC]*d[5mC]*dT*k[5mC]*kG*e[5mC]; antisense) [compound 548172],0
8,548173 (e[5mC]*eT*k[5mC]*dA*dG*dT*dT*dG*d[5mC]*dG*dA*d[5mC]*d[5mC]*kT*k[5mC]*eG; antisense) [compound 548173],51
9,548175 (eA*eT*k[5mC]*dT*d[5mC]*dA*dG*dT*dT*dG*d[5mC]*dG*dA*k[5mC]*k[5mC]*eT; antisense) [compound 548175],0
10,548176 (eG*eA*kT*d[5mC]*dT*d[5mC]*dA*dG*dT*dT*dG*d[5mC]*dG*kA*k[5mC]*e[5mC]; antisense) [compound 548176],38
11,548177 (eA*eG*kA*dT*d[5mC]*dT*d[5mC]*dA*dG*dT*dT*dG*d[5mC]*kG*kA*e[5mC]; antisense) [compound 548177],45
12,548178 (eG*eA*kG*dA*dT*d[5mC]*dT*d[5mC]*dA*dG*dT*dT*dG*k[5mC]*kG*eA; antisense) [compound 548178],54
13,548179 (eG*eG*kA*dG*dA*dT*d[5mC]*dT*d[5mC]*dA*dG*dT*dT*kG*k[5mC]*eG; antisense) [compound 548179],52
14,548181 (eG*eT*k[5mC]*dA*dT*dG*dG*dA*dG*dA*dT*d[5mC]*dT*k[5mC]*kA*eG; antisense) [compound 548181],55
15,548182 (eA*eG*kT*d[5mC]*dA*dT*dG*dG*dA*dG*dA*dT*d[5mC]*kT*k[5mC]*eA; antisense) [compound 548182],55
16,548183 (e[5mC]*eA*kG*dT*d[5mC]*dA*dT*dG*dG*dA*dG*dA*dT*k[5mC]*kT*e[5mC]; antisense) [compound 548183],43
17,548184 (eA*e[5mC]*kA*dG*dT*d[5mC]*dA*dT*dG*dG*dA*dG*dA*kT*k[5mC]*eT; antisense) [compound 548184],73
18,548185 (eA*eA*k[5mC]*dA*d[5mC]*dA*d[5mC]*dA*dG*dT*d[5mC]*dA*dT*kG*kG*eA; antisense) [compound 548185],23
19,548186 (e[5mC]*eA*kA*d[5mC]*dA*d[5mC]*dA*d[5mC]*dA*dG*dT*d[5mC]*dA*kT*kG*eG; antisense) [compound 548186],0
20,548187 (e[5mC]*eA*kT*d[5mC]*d[5mC]*dT*dA*dT*d[5mC]*d[5mC]*dG*dT*dG*kT*kT*e[5mC]; antisense) [compound 548187],33
21,548189 (e[5mC]*eA*kT*dG*dA*dA*d[5mC]*dA*dT*d[5mC]*d[5mC]*dT*dA*kT*k[5mC]*e[5mC]; antisense) [compound 548189],24
22,548190 (eT*eA*kT*dT*d[5mC]*d[5mC]*dA*dT*dG*dA*dA*d[5mC]*dA*kT*k[5mC]*e[5mC]; antisense) [compound 548190],43
23,548191 (eG*eT*k[5mC]*dA*dA*d[5mC]*dA*dT*dA*dT*dT*d[5mC]*d[5mC]*kA*kT*eG; antisense) [compound 548191],0
24,548192 (e[5mC]*e[5mC]*kT*dG*dT*d[5mC]*dA*dA*d[5mC]*dA*dT*dA*dT*kT*k[5mC]*e[5mC]; antisense) [compound 548192],65
25,548193 (eT*eG*kT*d[5mC]*d[5mC]*dT*dG*dT*d[5mC]*dA*dA*d[5mC]*dA*kT*kA*eT; antisense) [compound 548193],58
26,548194 (eG*e[5mC]*k[5mC]*dA*dA*d[5mC]*dA*dG*dT*dT*dT*d[5mC]*dA*kA*k[5mC]*eT; antisense) [compound 548194],61
27,548196 (e[5mC]*eA*kA*dT*dA*dT*dT*dG*dA*d[5mC]*dT*dT*dT*kG*kG*eG; antisense) [compound 548196],6

row,Substance,% inhibition [%]
1,548198 (eA*e[5mC]*kT*dG*d[5mC]*dA*dG*dG*d[5mC]*dA*dA*dT*dA*kT*kT*eT; antisense) [compound 548198],49
2,548199 (eG*e[5mC]*kA*d[5mC]*dT*dG*d[5mC]*dA*dG*dG*d[5mC]*dA*dA*kT*kA*eT; antisense) [compound 548199],24
3,548200 (e[5mC]*eT*kA*dA*dT*dG*dT*dG*dG*d[5mC]*dA*d[5mC]*dT*kG*k[5mC]*eA; antisense) [compound 548200],19
4,548202 (eG*e[5mC]*kT*dG*dT*dT*d[5mC]*dT*dA*dA*dT*dG*dT*kG*kG*e[5mC]; antisense) [compound 548202],9
5,548203 (eT*eG*kA*d[5mC]*dT*dA*dG*dT*dG*dA*dA*dT*dG*kG*k[5mC]*eT; antisense) [compound 548203],73
6,548204 (eT*e[5mC]*kT*dG*dA*d[5mC]*dT*dA*dG*dT*dG*dA*dA*kT*kG*eG; antisense) [compound 548204],25
7,548205 (eT*e[5mC]*kA*dA*dT*d[5mC]*dT*dG*dA*d[5mC]*dT*dA*dG*kT*kG*eA; antisense) [compound 548205],14
8,548206 (eG*eG*kT*d[5mC]*dA*dA*dT*d[5mC]*dT*dG*dA*d[5mC]*dT*kA*kG*eT; antisense) [compound 548206],45
9,548207 (e[5mC]*eT*kG*dG*dT*d[5mC]*dA*dA*dT*d[5mC]*dT*dG*dA*k[5mC]*kT*eA; antisense) [compound 548207],60
10,548208 (e[5mC]*eT*k[5mC]*dT*dG*dG*dT*d[5mC]*dA*dA*dT*d[5mC]*dT*kG*kA*e[5mC]; antisense) [compound 548208],19
11,548209 (e[5mC]*eA*kA*dT*d[5mC]*dT*d[5mC]*dT*dG*dG*dT*d[5mC]*dA*kA*kT*e[5mC]; antisense) [compound 548209],57
12,548210 (e[5mC]*eA*kA*d[5mC]*dA*dA*dT*d[5mC]*dT*d[5mC]*dT*dG*dG*kT*k[5mC]*eA; antisense) [compound 548210],55
13,548211 (eA*e[5mC]*k[5mC]*dA*dA*d[5mC]*dA*dA*dT*d[5mC]*dT*d[5mC]*dT*kG*kG*eT; antisense) [compound 548211],51
14,548212 (eA*eG*k[5mC]*d[5mC]*d[5mC]*dA*d[5mC]*d[5mC]*dA*dA*d[5mC]*dA*dA*kT*k[5mC]*eT; antisense) [compound 548212],44
15,548213 (eG*eA*k[5mC]*dA*dG*d[5mC]*d[5mC]*d[5mC]*dA*d[5mC]*d[5mC]*dA*dA*k[5mC]*kA*eA; antisense) [compound 548213],70
16,548214 (e[5mC]*eA*kG*dA*d[5mC]*dA*dG*d[5mC]*d[5mC]*d[5mC]*dA*d[5mC]*d[5mC]*kA*kA*e[5mC]; antisense) [compound 548214],55
17,548215 (eG*e[5mC]*kA*dT*dA*dG*dA*d[5mC]*d[5mC]*d[5mC]*d[5mC]*dA*dA*k[5mC]*kA*eG; antisense) [compound 548215],61
18,548216 (eG*eT*kG*d[5mC]*dA*dT*dA*dG*dA*d[5mC]*d[5mC]*d[5mC]*d[5mC]*kA*kA*e[5mC]; antisense) [compound 548216],45
19,548218 (eT*e[5mC]*k[5mC]*dT*dG*dT*dG*d[5mC]*dA*dT*dA*dG*dA*k[5mC]*k[5mC]*e[5mC]; antisense) [compound 548218],59
20,548219 (eG*eA*kA*dA*dT*d[5mC]*d[5mC]*dT*dG*dT*dG*d[5mC]*dA*kT*kA*eG; antisense) [compound 548219],8
21,548221 (eA*e[5mC]*kT*d[5mC]*d[5mC]*dA*dG*d[5mC]*dA*dG*dA*dA*dA*kT*k[5mC]*e[5mC]; antisense) [compound 548221],49
22,548222 (eA*eA*kT*d[5mC]*dA*dT*dG*d[5mC]*d[5mC]*dT*dT*dG*dT*kG*kG*eG; antisense) [compound 548222],32
23,548223 (eT*eA*kG*dA*d[5mC]*d[5mC]*d[5mC]*dA*dG*dA*dA*dT*d[5mC]*kA*kT*eG; antisense) [compound 548223],50
24,548224 (e[5mC]*e[5mC]*kA*dT*dA*dG*dA*d[5mC]*d[5mC]*d[5mC]*dA*dG*dA*kA*kT*e[5mC]; antisense) [compound 548224],20
25,548225 (eA*eG*kT*d[5mC]*dA*d[5mC]*d[5mC]*dA*dT*dA*dG*dA*d[5mC]*k[5mC]*k[5mC]*eA; antisense) [compound 548225],48
26,548226 (eT*eA*kA*dG*dT*d[5mC]*dA*d[5mC]*d[5mC]*dA*dT*dA*dG*kA*k[5mC]*e[5mC]; antisense) [compound 548226],39

# Source: patent publication US11840686B2, “Modulation of prekallikrein (PKK) expression” (Ionis Pharmaceuticals, Inc., priority 2013, dated 2023)
